Columns and labels:
[1] = tested on: CHIKV nsP1 guanylation activity; test: Guanylation assay, covalent nsP1-GTP-680 formation, SDS-PAGE fluorescence; settings: 100 μM analog, Fig 4 data; for Percent of Control: single replicates, scaled guanylation
CHIKV nsP1 [2] = test: HTS validation potency repeatability, EC50 of GTP analogs in two independent FP runs
[3] = target: CHIKV nsP1 GTP binding site; test: FP competition assay, displacement of GTP-Bodipy by GTP and RNA cap analogs (apparent Ki / EC50); settings: read-out: Average Ki; apparent Ki, 500 nM nsP1, 10 nM GTP-Bodipy, 1 hour 25°C
CHIKV nsP1 [4] = test: FP Kd determination of GTP-Bodipy and ATP-Bodipy with purified CHIKV nsP1; settings: fluorescence polarization, nsP1 titrated 3 μM to 1 nM, 1 hour 25°C

C[n+]1cn([C@@H]2O[C@H](COP(=O)([O-])OP(=O)(O)OP(=O)(O)OC[C@H]3O[C@@H](n4cnc5c(N)ncnc54)[C@H](O)[C@@H]3O)[C@@H](O)[C@H]2O)c2nc(N)[nH]c(=O)c21 [me^7-GpppA]
Average POC ([1]; mean of replicates): 75.4802
Percent of Control ([1]; listed as m7-GpppA2, 100 µM): 75.9437
Percent of Control ([1]; listed as m7-GpppA3, 100 µM): 80.9779
Percent of Control ([1]; listed as m7-GpppA, 100 µM): 69.519
Geometric Mean Potency (CHIKV nsP1 [2]; first set of rows): 4.163
Geometric Mean Potency (CHIKV nsP1 [2]; second set of rows): 4.105
Ki [3]: 7000 nM

Bodipy-γ-phosphate-labeled ATP analog [ATP-Bodipy]
Kd (CHIKV nsP1 [4]; 5 nM ATP-Bodipy): 2100 nM

Bodipy-γ-phosphate-labeled GTP analog [GTP-Bodipy]
Kd (CHIKV nsP1 [4]; 10 nM GTP-Bodipy): 100 nM
